# Patent US9879050B2, “Substituted urea depsipeptide analogs as activators of the CLPP endopeptidase” (priority 2013, dated 2018)
# Where two headings read alike, the source gives them in different places. *1 amine or outer side, *2 acyl side, *3 side chain or, on linkers, in order; H or OH if unused. Where a SMILES comes first, the peptide text is derived from it. Bridges are numbered along the chain shown (N, C = ends). [ ]: non-standard residue; d: D form. The star is where a group is joined. Phe(3,5-F2) = N[C@@H](Cc1cc(F)cc(F)c1)C(=O)O; NHPh(4-CF3) = FC(F)(F)c1ccc(N*)cc1; Heptenoyl(2E) = CCCC/C=C/C(=O)*; aThr = C[C@H](O)[C@H](N)C(=O)O; Pip = O=C(O)[C@@H]1CCCCN1; CO = O=C([*:1])[*:2]
# Tests used:
# S. aureus ClpP (Sa-ClpP) = molecular target: T1, S. aureus ClpP (Sa-ClpP) (Staphylococcus aureus, UniProt Q2G036); assay: ClpP activation, casein-BODIPY digestion assay (first described method); format: biochemical
# T1 construct: made in house; host or cells: E. coli BL21 (DE3)
# T1 sequence (Q2G036 whole entry): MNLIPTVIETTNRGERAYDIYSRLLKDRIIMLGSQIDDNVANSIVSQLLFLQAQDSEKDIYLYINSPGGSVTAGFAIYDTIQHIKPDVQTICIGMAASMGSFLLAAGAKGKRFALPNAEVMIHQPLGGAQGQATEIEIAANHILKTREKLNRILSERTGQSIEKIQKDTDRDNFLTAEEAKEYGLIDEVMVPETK
# Experimental: The compounds were assayed in a casein digestion assay in order to determine their effect on ClpP activation. Briefly, the assay was carried out using S. aureus ClpP (“Sa-ClpP”) overexpressed in E. coli BL21 (DE3) and purified in a two-step process. Purity of the protein was assessed through SDS PAGE analysis. EC50 evaluations were conducted in triplicate in a 20 μl assay format using a method adapted from Maurizi et al. (Methods Enzymol. (1994) 244:314-331.). Each well contained 10 μM saClpP, 25 μg/ml BODIPY FL casein (Invitrogen Corporation, San Diego, Calif.), and test compound in concentrations ranging between 0-100 μM in assay buffer (50 mM Tris pH 8, 200 mM KCl, and 1 mM TCEP). The reaction took place at 37° C. Fluorescence (excitation 485 nm; emission 528 nm) was measured in five minute intervals over a 45 min period using a BioTek HT fluorescence microplate reader (BioTek Instruments, Inc., Winooski, Vt.). Velocity of each reaction was calculated and data was fit to a dose response curve using GraphPad Prism® software (GraphPad Software, Inc., La Jolla, Calif.). EC50 is the effective concentration of compound which causes 50% activation of S. aureus ClpP in the foregoing BODIPY FL casein assay.
# S. pneumoniae DAW27 = assay: Minimal inhibitory concentration, microbroth dilution; format: cell-based; conditions: Streptococcus pneumoniae, DAW27, read-out: Minimal Inhibitory Concentration S. pneumoniae DAW27
# Summary of the method: (§1)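 Following CLSI M7-A7 microbroth dilution, twofold serial dilutions of compound (top final concentration 200 μM) were combined with an equal volume of broth inoculum at about 10^5 cfu/mL. Plates were incubated aerobically at 37 °C overnight, and the MIC was the lowest concentration preventing visible growth.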
# E. faecails ATCC 33186 = assay: as above; format: cell-based; conditions: Enterococcus faecalis, ATCC33186, read-out: Minimal Inhibitory Concentration E. faecails ATCC 33186
# Summary of the method: as §1
# [1] = Cytotoxicity assay, CellTiter-Glo cell viability; format: cell-based; conditions: African green monkey
# Summary of the method: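 Vero cells seeded overnight at 37 °C in DMEM with 10% FBS, then exposed to serial dilutions of compound for 72 h. Viability read by CellTiter-Glo luminescence; IC50 from duplicates, given as the range of two independent experiments.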
# S. pneumoniae R6 = assay: Minimal inhibitory concentration, microbroth dilution; format: cell-based
# Summary of the method: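 Twofold serial dilutions in broth per CLSI M7-A7 microbroth dilution, incubated aerobically overnight at 37° C. MIC read visually as lowest concentration preventing bacterial growth.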
# S. aureus USA 300 ΔClpP = assay: as above; format: cell-based, Staphylococcus aureus; conditions: ClpP inactivated strain
# Summary of the method: as §1
# [2] = first described ClpP activation assay (**), 10 μM saClpP, 25 μg/ml BODIPY FL casein, 37° C., read-out: ClpP Activation EC50
# [3] = Vero cells, 72 hours, read-out: Cytotoxicity IC50
# [4] = Streptococcus pneumoniae, R6, read-out: Minimal Inhibitory Concentration S. pneumoniae R6
# [5] = Streptococcus pneumoniae, R6; read-out: Minimal Inhibitory Concentration S. pneumoniae R6
SMILES,EC50 (S. aureus ClpP (Sa-ClpP); [2]) [µM],MIC (S. pneumoniae DAW27) [µM],MIC (E. faecails ATCC 33186) [µM],"IC50 at 72 h [1, 3] [µM]",MIC (S. pneumoniae R6; [4]) [µM],Minimal Inhibitory Concentration S. aureus USA 300 ΔClpP (S. aureus USA 300 ΔClpP) [µM],MIC (S. pneumoniae R6; [5]) [µM],EC50 (S. aureus ClpP (Sa-ClpP)) [µM],IC50 at 72 h [1] [µM]
"C[C@@H]1C[C@H]2C(=O)OC[C@H](NC(=O)[C@H](Cc3ccccc3)NC(=O)Nc3ccc4c(c3)CCN4C)C(=O)N3CCC[C@H]3C(=O)N3CCCC[C@H]3C(=O)N[C@@H](C)C(=O)N2C1 [Compound 11, (S)—N-((2R,6S,8aS,14aS,20S,23aS)-2,6-Dimethyl-5,8,14,19,23-Pentaoxooctadecahydro-1H,5H,14H,19H-Pyrido[2,1-I]Dipyrrolo[2,1-C:2′,1′-L][1]Oxa[4,7,10,13]Tetraazacyclohexadecin-20-Yl)-2-(3-(1-Methylindolin-5-Yl)Ureido)-3-Phenylpropanamide]",2.3 ± 0.3,0.3,0.6,76 ± 10.6,,,,,
"Cc1ccc(NC(=O)N[C@@H](Cc2cc(F)cc(F)c2)C(=O)N[C@H]2COC(=O)[C@@H]3C[C@@H](C)CN3C(=O)[C@H](C)NC(=O)[C@@H]3CCCCN3C(=O)[C@@H]3CCCN3C2=O)cc1 [Compound 24, (S)-3-(3,5-Difluorophenyl)-N-((2R,6S,8aS,14aS,20S,23aS)-2,6-Dimethyl-5,8,14,19,23-Pentaoxooctadecahydro-1H,5H,14H,19H-Pyrido[2,1-I]Dipyrrolo[2,1-C:2′,1′-L][1]Oxa[4,7,10,13]Tetraazacyclohexadecin-20-Yl)-2-(3-(P-Tolyl)Ureido)Propanamide]",3.3 ± 0.2,,,93.8 ± 4.8,,,,,
"C[C@@H]1NC(=O)[C@@H]2CCCCN2C(=O)[C@@H]2CCCN2C(=O)[C@@H](NC(=O)[C@H](Cc2cc(F)cc(F)c2)NC(=O)Nc2ccc(C(F)(F)F)cc2)[C@H](C)OC(=O)[C@@H]2CCCN2C1=O [Compound 16, (S)-3-(3,5-Difluorophenyl)-N-((6S,8aS,14aS,20S,21 S,23aS)-6,21-Dimethyl-5,8,14,19,23-Pentaoxooctadecahydro-1H,5H,14H,19H-Pyrido[2,1-I]Dipyrrolo[2,1-C:2′,1′-L][1]Oxa[4,7,10,13]Tetraazacyclohexadecin-20-Yl)-2-(3-(4-(Trifluoromethyl)Phenyl)Ureido)Propanamide] ({NHPh(4-CF3)-CO}-[Phe(3,5-F2)][aThr]P[Pip]AP; ester 2-C)",4.4 ± 0.7,,< 0.1,74.3 ± 9,0.8,3.1,,,
"Cc1ccc(NC(=O)N[C@@H](Cc2cc(F)cc(F)c2)C(=O)N[C@@H]2C(=O)N3CCC[C@H]3C(=O)N3CCCC[C@H]3C(=O)N[C@@H](C)C(=O)N3C[C@@H](C)C[C@H]3C(=O)O[C@H]2C)cc1 [Compound 18, (S)-3-(3,5-Difluorophenyl)-2-(3-(P-Tolyl)Ureido)-N-((2R,6S,8aS,14aS,20S,21S,23aS)-2,6,21-Trimethyl-5,8,14,19,23-Pentaoxooctadecahydro-1H,5H,14H,19H-Pyrido[2,1-I]Dipyrrolo[2,1-C:2′,1′-L][1]Oxa[4,7,10,13]Tetraazacyclohexadecin-20-Yl)Propanamide]",7 ± 0.9,,0.8,26.7 ± 3.6,< 0.1,100,,,
"CCCC/C=C/C(=O)N[C@@H](Cc1cc(F)cc(F)c1)C(=O)N[C@@H]1C(=O)N2CCC[C@H]2C(=O)N2CCCC[C@H]2C(=O)N[C@@H](C)C(=O)N2CCC[C@H]2C(=O)O[C@H]1C [ADEP 2719, reference compound] ({Heptenoyl(2E)}-[Phe(3,5-F2)][aThr]P[Pip]AP; ester 2-C)",,,,37.7 ± 3.4,,500,< 0.2,,
"Cc1ccc(NC(=O)N[C@@H](Cc2ccccc2)C(=O)N[C@H]2COC(=O)[C@@H]3C[C@@H](C)CN3C(=O)[C@H](C)NC(=O)[C@@H]3CCCCN3C(=O)[C@@H]3CCCN3C2=O)cc1 [Compound 23, (S)—N-((2R,6S,8aS,14aS,20S,23aS)-2,6-Dimethyl-5,8,14,19,23-Pentaoxooctadecahydro-1H,5H,14H,19H-Pyrido[2,1-I]Dipyrrolo[2,1-C:2′,1′-L][1]Oxa[4,7,10,13]Tetraazacyclohexadecin-20-Yl)-3-Phenyl-2-(3-(P-Tolyl)Ureido)Propanamide]",2.6 ± 0.4,,< 0.2,74 ± 7.7,< 0.2,,,,
"Cc1ccc(NC(=O)N[C@@H](Cc2cc(F)cc(F)c2)C(=O)N[C@@H]2C(=O)N3CCC[C@H]3C(=O)N3CCCC[C@H]3C(=O)N[C@@H](C)C(=O)N3CCC[C@H]3C(=O)O[C@H]2C)cc1 [Compound 15, (S)-3-(3,5-Difluorophenyl)-N-((6S,8aS,14aS,20S,21 S,23aS)-6,21-Dimethyl-5,8,14,19,23-Pentaoxooctadecahydro-1H,5H,14H,19H-Pyrido[2,1-I]Dipyrrolo[2,1-C:2′,1′-L][1]Oxa[4,7,10,13]Tetraazacyclohexadecin-20-Yl)-2-(3-(P-Tolyl)Ureido)Propanamide]",4.6 ± 0.9,,0.3,39.7 ± 6.6,0.3,100,,,
"C[C@H]1C[C@H]2C(=O)O[C@@H](C)[C@H](NC(=O)[C@H](Cc3cc(F)cc(F)c3)NC(=O)Nc3ccc4c(c3)OCO4)C(=O)N3CCC[C@H]3C(=O)N3CCCC[C@H]3C(=O)N[C@@H](C)C(=O)N2C1 [Compound 20, (S)-2-(3-(Benzo[D][1,3]Dioxol-5-Yl)Ureido)-3-(3,5-Difluorophenyl)-N-((2R,6S,8aS,14aS,20S,21 S,23aS)-2,6,21-Trimethyl-5,8,14,19,23-Pentaoxooctadecahydro-1H,5H,14H,19H-Pyrido[2,1-I]Dipyrrolo[2,1-C:2′,1′-L][1]Oxa[4,7,10,13]Tetraazacyclohexadecin-20-Yl)Propanamide]",,,,,,200,< 0.1,1.6 ± 0.3,52.8 ± 4.9
"C[C@@H]1NC(=O)[C@@H]2CCCCN2C(=O)[C@@H]2CCCN2C(=O)[C@@H](NC(=O)[C@H](Cc2cc(F)cc(F)c2)NC(=O)Nc2ccc3c(c2)OCO3)[C@H](C)OC(=O)[C@@H]2CCCN2C1=O [Compound 17, (S)-2-(3-(Benzo[D][1,3]Dioxol-5-Yl)Ureido)-3-(3,5-Difluorophenyl)-N-((6S,8aS,14aS,20S,21 S,23aS)-6,21-Dimethyl-5,8,14,19,23-Pentaoxooctadecahydro-1H,5H,14H,19H-Pyrido[2,1-I]Dipyrrolo[2,1-C:2′,1′-L][1]Oxa[4,7,10,13]Tetraazacyclohexadecin-20-Yl)Propanamide]",,,,,,200,0.8,3.6 ± 0.6,46.5 ± 9.8
"C[C@H]1C[C@H]2C(=O)O[C@@H](C)[C@H](NC(=O)[C@H](Cc3cc(F)cc(F)c3)NC(=O)Nc3ccc(C(F)(F)F)cc3)C(=O)N3CCC[C@H]3C(=O)N3CCCC[C@H]3C(=O)N[C@@H](C)C(=O)N2C1 [Compound 19, (S)-3-(3,5-Difluorophenyl)-2-(3-(4-(Trifluoromethyl)Phenyl)Ureido)-N-((2R,6S,8aS,14aS,20S,21S,23aS)-2,6,21-Trimethyl-5,8,14,19,23-Pentaoxooctadecahydro-1H,5H,14H,19H-Pyrido[2,1-I]Dipyrrolo[2,1-C:2′,1′-L][1]Oxa[4,7,10,13]Tetraazacyclohexadecin-20-Yl)Propanamide]",3.2 ± 0.1,,0.39,36.8 ± 4.1,0.8,6.2,,,
